Where two headings read alike, the source gives them in different places.
Legend:
FLAG-mouse κOR [1] = biological target: T1, FLAG-mouse κOR (Mus musculus, UniProt P33534); assay: cell-based
T1 construct: expressed in transfected cells; host or cells: HEK cells (HEK-293), transient, co-transfected with pGloSensor22F

δOR [2] = biological target: T2, δOR (Homo sapiens, UniProt P41143); assay: biochemical; format: binding
κOR = κOR (Homo sapiens, UniProt P41145); assay: biochemical; format: binding
Sequence of κOR (P41145 whole entry): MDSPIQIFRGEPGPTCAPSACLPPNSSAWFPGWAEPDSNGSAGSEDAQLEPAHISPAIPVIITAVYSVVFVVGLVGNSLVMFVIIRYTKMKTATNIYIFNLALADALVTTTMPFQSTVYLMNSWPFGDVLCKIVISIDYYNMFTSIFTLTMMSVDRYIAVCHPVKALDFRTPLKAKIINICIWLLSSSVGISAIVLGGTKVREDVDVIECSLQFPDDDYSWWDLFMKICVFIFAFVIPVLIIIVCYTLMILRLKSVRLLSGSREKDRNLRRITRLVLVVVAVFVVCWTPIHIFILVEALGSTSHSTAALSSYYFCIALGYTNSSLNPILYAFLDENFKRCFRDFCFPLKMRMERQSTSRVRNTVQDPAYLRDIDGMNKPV

δOR KO mice = assay: Two-bottle choice alcohol paradigm (drinking in the dark, 10% ethanol vs. water); format: in vivo, mouse; conditions: speciociliatine 30 mg∙kg^−1 i.p.; δOR KO male mice
Description: (§1) Mice were subject to drinking in the dark (DID), limited access (4 h per day), two-bottle choice (10% ethanol vs. water) paradigm in which they were trained to consume alcohol voluntarily as previously described ([Rhodes et al., 2005]; [van Rijn and Whistler, 2009]). Mice reached stable alcohol consumption within 3 weeks of training, and after the third week, drug injections were administered prior to the daily drinking session on Friday. Drug’s effect on alcohol consumption was measured as the change in Friday’s alcohol intake minus the average alcohol intake from the preceding Tuesday–Thursday of that week (g∙kg^−1). A summary of all statistical analyses for the drinking data can be found in Supplemental Tables S6–S9. In brief, results from two-bottle choice alcohol consumption paradigms were assessed for statistical significance using RM two-way ANOVA for main effects of drug dose, treatment day, and drug dose × treatment day; Sidak’s multiple comparisons (MC) between alcohol consumption baseline (Tuesday–Thursday average) vs. treatment day consumption (Friday) were then used as the post hoc test for each drug dose tested. The same RM two-way ANOVA and Sidak’s MC post hoc analyses were used for water consumption and ethanol preference data. […] Sex differences between baseline data were evaluated using RM two-way ANOVA for main effects of sex, treatment baseline, and sex × treatment baseline; Sidak’s multiple comparisons (MC) between male and female mice were then used as the post hoc test for each treatment week tested.

wild-type C57Bl/6 mice [3] = assay: as above; format: in vivo, mouse; conditions: WT male mice
Description: as §1

[4] = tested on: wild-type and δOR KO male mice; assay: Accelerating rotarod test; format: in vivo, mouse
Description: Mice were trained to walk on a rotarod apparatus (IITC, United States) with 1.25” diameter drums 2 days prior to drug testing. The rotarod started at 3 rpm and was increased to 30 rpm over 300 s. A trial for a mouse ended when it fell and tripped the sensor, when it rode the rotarod for two consecutive revolutions, or after 300 s (the maximum trial time)([White et al., 2015]). Mice received at least 3 min of rest between trials. On test day, baseline performance was assessed as the average latency to fall in three trials per mouse. […] Each mouse’s performance was normalized to its own baseline and reported as a percentage. A summary of all statistical analyses for the rotarod data can be found in Supplemental Table S2. In brief, data for each tested timepoint were calculated as a percentage of the baseline, and thus statistical significance was calculated in a two-tailed, one sample t test vs. a hypothetical mean of 100 (baseline was 100%). Rotarod results between WT and δOR KO genotypes were compared with a mixed-effects model with fixed effects for timepoint, genotype, and timepoint × genotype.

FLAG-mouse δOR [5] = biological target: T3, FLAG-mouse δOR (Mus musculus, UniProt P32300); parameters: method as in Gutridge et al., 2020; conditions: cited from earlier work
T3 construct: expressed in transfected cells; host or cells: HEK cells (HEK-293), transient, co-transfected with pGloSensor22F
T3 sequence (P32300 whole entry): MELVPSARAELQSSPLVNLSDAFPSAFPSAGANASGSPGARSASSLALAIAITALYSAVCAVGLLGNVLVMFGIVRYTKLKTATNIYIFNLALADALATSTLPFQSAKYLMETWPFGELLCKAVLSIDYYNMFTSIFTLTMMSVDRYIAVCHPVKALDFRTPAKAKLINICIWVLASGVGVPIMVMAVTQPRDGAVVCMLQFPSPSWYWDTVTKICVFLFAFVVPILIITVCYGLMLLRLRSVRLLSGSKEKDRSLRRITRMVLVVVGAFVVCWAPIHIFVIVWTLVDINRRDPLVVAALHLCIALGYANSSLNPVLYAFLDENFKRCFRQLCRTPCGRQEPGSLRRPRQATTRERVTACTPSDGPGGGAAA

FLAG-mouse κOR [6] = biological target: T1, FLAG-mouse κOR; parameters: method as in Gutridge et al., 2020; conditions: cited from earlier work
C57Bl/6 male mice [7] = assay: Locomotor evaluation (ambulation); conditions: 7-hydroxymitragynine 3 mg∙kg^−1 i.p.; naloxone 1 mg∙kg^−1 s.c. 10 min prior; WT male mice; 90 min
C57Bl/6 male mice [8] = conditions: 3 mg∙kg^−1; ref Gutridge et al., 2020; cited from earlier work
HA-mouse µOR [9] = biological target: T4, HA-mouse µOR (Mus musculus, UniProt P42866); conditions: cited from earlier work
T4 construct: expressed in transfected cells; host or cells: HEK cells (HEK-293), transient, co-transfected with pGloSensor22F
T4 sequence (P42866 whole entry): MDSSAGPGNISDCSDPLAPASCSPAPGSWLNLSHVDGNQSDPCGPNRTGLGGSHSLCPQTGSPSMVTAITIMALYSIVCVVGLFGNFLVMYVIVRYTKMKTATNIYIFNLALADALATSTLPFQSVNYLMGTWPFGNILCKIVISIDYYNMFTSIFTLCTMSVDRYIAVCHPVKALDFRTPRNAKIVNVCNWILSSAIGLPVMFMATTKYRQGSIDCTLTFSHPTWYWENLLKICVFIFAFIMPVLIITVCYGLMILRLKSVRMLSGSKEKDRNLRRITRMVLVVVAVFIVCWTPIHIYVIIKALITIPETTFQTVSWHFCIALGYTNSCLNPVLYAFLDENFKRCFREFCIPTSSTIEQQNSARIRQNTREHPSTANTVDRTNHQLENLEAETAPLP

δOR [10] = biological target: T2, δOR; parameters: expressed in transfected cells; method as in Gutridge et al., 2020; conditions: ref Gutridge et al., 2020; cited from earlier work
wild-type C57Bl/6 mice [11] = conditions: cited from earlier work
μOR = μOR (Homo sapiens, UniProt P35372); assay: biochemical; format: binding
Sequence of μOR (P35372 whole entry): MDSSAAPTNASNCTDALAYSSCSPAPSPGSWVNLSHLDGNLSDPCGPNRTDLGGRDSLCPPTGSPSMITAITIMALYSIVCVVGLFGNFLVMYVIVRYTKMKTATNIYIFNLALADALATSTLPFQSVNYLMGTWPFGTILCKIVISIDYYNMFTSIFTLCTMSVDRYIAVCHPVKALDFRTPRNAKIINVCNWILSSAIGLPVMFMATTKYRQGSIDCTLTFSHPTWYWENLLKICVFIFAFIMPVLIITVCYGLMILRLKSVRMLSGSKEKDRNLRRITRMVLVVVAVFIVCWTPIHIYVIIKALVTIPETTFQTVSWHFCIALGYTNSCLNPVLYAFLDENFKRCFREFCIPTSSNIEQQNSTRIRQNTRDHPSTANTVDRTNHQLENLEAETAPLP

FLAG-mouse δOR [12] = biological target: T3, FLAG-mouse δOR; assay: cell-based; conditions: for Emax: HEK293, read-out: cAMP α (% inhibition at maximal efficacy)
HA-mouse µOR [13] = biological target: T4, HA-mouse µOR; assay: cell-based; conditions: for Emax: HEK293, read-out: cAMP α (% inhibition at maximal efficacy)
[14] = speciociliatine 3, 10 and 30 mg∙kg^−1 i.p.
[15] = 30 mg∙kg^−1 i.p., wild-type mice
[16] = read-out: cAMP IC50, ref Gutridge et al., 2020
[17] = 7-hydroxypaynantheine 30 mg∙kg^−1 s.c.

T1 sequence (P33534 whole entry): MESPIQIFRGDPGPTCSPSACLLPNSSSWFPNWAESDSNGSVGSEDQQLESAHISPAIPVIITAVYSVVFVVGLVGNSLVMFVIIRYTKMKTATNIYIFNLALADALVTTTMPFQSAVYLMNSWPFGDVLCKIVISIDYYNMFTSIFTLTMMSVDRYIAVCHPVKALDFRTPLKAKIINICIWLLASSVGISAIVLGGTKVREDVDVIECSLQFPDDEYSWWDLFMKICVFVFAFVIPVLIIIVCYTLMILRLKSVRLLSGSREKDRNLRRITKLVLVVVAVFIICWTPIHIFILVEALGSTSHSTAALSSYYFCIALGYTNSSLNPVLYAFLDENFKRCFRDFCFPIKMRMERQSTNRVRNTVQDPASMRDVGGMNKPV
T2 sequence (P41143 whole entry): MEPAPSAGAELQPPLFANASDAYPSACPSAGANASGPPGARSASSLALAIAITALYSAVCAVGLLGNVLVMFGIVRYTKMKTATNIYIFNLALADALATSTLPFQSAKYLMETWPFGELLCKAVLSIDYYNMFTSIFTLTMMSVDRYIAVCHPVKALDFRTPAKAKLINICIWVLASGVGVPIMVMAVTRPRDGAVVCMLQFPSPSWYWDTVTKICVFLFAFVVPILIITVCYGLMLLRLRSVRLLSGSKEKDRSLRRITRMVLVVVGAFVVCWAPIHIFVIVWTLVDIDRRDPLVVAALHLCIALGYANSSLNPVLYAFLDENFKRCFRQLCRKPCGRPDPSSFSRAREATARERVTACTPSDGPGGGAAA

For `CC[C@@H]1CN2CCc3c([nH]c4cccc(OC)c34)[C@H]2C[C@@H]1/C(=C\OC)C(=O)OC` [SPECIO, speciociliatine], the Emax (FLAG-mouse κOR [1]; HEK293, read-out: cAMP α (% inhibition at maximal efficacy)) was 60 ± 7%, the Ki (δOR [2]) was 4340 nM and the Ki (κOR; Binding Ki (µM)) was 0.59 µM. For the same molecule, the Ethanol preference (δOR KO mice) was “significantly decreased”, the Water consumption (δOR KO mice) was “did not change water consumption” and the “Average decrease in ethanol consumption” value (wild-type C57Bl/6 mice [3]; 30 mg∙kg^−1 i.p.) was 2.5 ± 0.3 g/kg. For the same molecule, the “Reduction in ethanol consumption” value (wild-type C57Bl/6 mice [3]; 30 mg∙kg^−1 i.p.) was 90 ± 3%, the Ethanol preference (wild-type C57Bl/6 mice [3]; speciociliatine 30 mg∙kg^−1 i.p.) was “significantly decreased” and the Ethanol consumption (wild-type C57Bl/6 mice [3]; [14]) was “significantly decreased ethanol consumption but only at the 30 mg∙kg^−1 dose”. The Water consumption (wild-type C57Bl/6 mice [3]; [14]) was “did not change water consumption”, the “Seizure level observed in the rotarod assay” value ([4]; 30 mg/kg i.p., one δOR KO mouse) was 5–6 and the “Mortality in the rotarod assay” value ([4]; 30 mg/kg i.p., δOR KO mice (n = 8)) was “one δOR KO mouse died”. The “Rotarod performance (latency to fall, % of baseline)” value [4, 15] was “significantly reduced the ability”, the “Time of full recovery on rotarod” value [4, 15] was 120 min and the Rotarod performance ([4]; 30 mg∙kg^−1 i.p., δOR KO mice) was “same effect was observed”.

For `CC[C@@H]1CN2CC[C@@]3(O)C(=Nc4cccc(OC)c43)[C@@H]2C[C@@H]1/C(=C\OC)C(=O)OC` [7-OH MITRA, 7-hydroxymitragynine, reference compound], the “cAMP α” value (FLAG-mouse δOR [5]; normalized to Leu-enkephalin, ref Gutridge et al., 2020) is given as 80 ± 8, the IC50 (FLAG-mouse δOR [5]; [16]) is given as 960 nM and the Ki (δOR [2]) is given as 190 nM. For the same molecule, the “cAMP α” value (FLAG-mouse κOR [6]; normalized to U50,488, ref Gutridge et al., 2020) was 77 ± 5, the IC50 (FLAG-mouse κOR [6]; [16]) was 1040 nM and the Ki (κOR; Binding Ki (µM)) was 0.14 µM. The “Hyperlocomotion induced by 7-hydroxymitragynine after naloxone pretreatment” value (C57Bl/6 male mice [7]) was “blocked”, the “Hyperlocomotion and CPP” value (C57Bl/6 male mice [8]) was “caused both hyperlocomotion and CPP” and the “cAMP α” value (HA-mouse µOR [9]) was 84 ± 3. The “β-arrestin 2 α” value (δOR [10]) was 14 ± 1 and the “Minimal effective dose to reduce alcohol intake” value (wild-type C57Bl/6 mice [11]; ref Gutridge et al., 2020) was 3 mg/kg.

In the case of `COc1ccsc1CNCC[C@@]1(c2ccccn2)CCOC2(CCCC2)C1` [Oliceridine/TRV130, Oliceridine], the Alcohol consumption (wild-type C57Bl/6 mice [11]; selective activation of μOR G-protein signaling, ref Gutridge et al., 2020) is listed as “did not decrease alcohol consumption”.

For `Oc1ccc2c3c1O[C@H]1c4oc5ccccc5c4C[C@@]4(O)[C@@H](C2)N(CC2CC2)CC[C@]314` [naltriben], the Alcohol consumption (wild-type C57Bl/6 mice [11]; 6 and 10 mg∙kg^−1, ref van Rijn and Whistler, 2009) is listed as “dose-dependently decreases alcohol consumption”.

For `C=C[C@H]1CN2CC[C@@]3(O)C(=Nc4cccc(OC)c43)[C@@H]2C[C@@H]1/C(=C\OC)C(=O)OC` [7OH PAYN, 7-Hydroxypaynantheine], the Ki (δOR [2]) was 12700 nM, the Ki (κOR; Binding Ki (µM)) was 7.46 µM and the “Decrease in ethanol consumption” value (wild-type C57Bl/6 mice [3]; 30 mg∙kg^−1 s.c.) was 1.1 ± 0.3 g/kg. For the same molecule, the “Reduction in ethanol consumption” value (wild-type C57Bl/6 mice [3]; 30 mg∙kg^−1 s.c.) was 40 ± 11%, the Ethanol preference (wild-type C57Bl/6 mice [3]; [17]) was “corresponding decrease in ethanol preference” and the Water consumption (wild-type C57Bl/6 mice [3]; [17]) was “concomitant increase in water consumption”. The Alcohol intake (wild-type C57Bl/6 mice [3]; 7-hydroxypaynantheine 10 and 30 mg∙kg^−1 s.c.) was “significantly reduce alcohol intake”, the Ki (μOR) was 6150 nM and the IC50 (FLAG-mouse δOR [12]) was 5740 nM. It also gave an Emax (FLAG-mouse δOR [12]) of 70 ± 20%, an IC50 (HA-mouse µOR [13]) of 21800 nM and an Emax (HA-mouse µOR [13]) of 80 ± 40%.

`CC[C@H]1CN2CCc3c([nH]c4cccc(OC)c34)[C@@H]2C[C@@H]1/C(=C\OC)C(=O)OC` [SPG, speciogynine] showed a Ki (κOR; Binding Ki (µM)) of 3 µM and a Ki (κOR; Binding pKi) of 3.98 µM.

For `Oc1ccc2c3c1O[C@H]1c4[nH]c5ccccc5c4C[C@@]4(O)[C@@H](C2)N(CC2CC2)CC[C@]314` [naltrindole], the Alcohol intake (wild-type C57Bl/6 mice [11]; 10 mg∙kg^−1, ref van Rijn and Whistler, 2009) is listed as “does not decrease alcohol intake”.

Molecule `C=CC1CN2CCC3(Nc4cccc(OC)c4C3=O)C2CC1C(=COC)C(=O)OC` (centres unmarked) [PAYN PI, Paynantheine Pseudoindoxyl] has a Ki (δOR [2]) of 920 nM, a Ki (κOR; Binding Ki (µM)) of 1.31 µM and a Ki (μOR) of 680 nM. For the same molecule, the IC50 (HA-mouse µOR [13]) was 4820 nM and the Emax (HA-mouse µOR [13]) was 60 ± 6%.

`CC[C@H]1CN2CC[C@]3(Nc4cccc(OC)c4C3=O)[C@@H]2C[C@@H]1/C(=C\OC)C(=O)OC` [SPG PI, Speciogynine Pseudoindoxyl] gave an IC50 (FLAG-mouse κOR [1]) of 20600 nM, a Ki (δOR [2]) of 940 nM and a Ki (κOR) of 0.75 µM. For the same molecule, the Ki (μOR) was 77 nM, the IC50 (FLAG-mouse δOR [12]) was 8530 nM and the Emax (FLAG-mouse δOR [12]) was 80 ± 20%. The IC50 (HA-mouse µOR [13]) was 230 nM and the Emax (HA-mouse µOR [13]) was 58 ± 4%.
